The test system of one test is S. epidermidis. In words: Comparison of diol compounds, growth of beneficial bacteria. The class given is cell-based, Staphylococcus epidermidis. The arrangement: key to Effect on the growth of beneficial bacteria (S. epidermidis): ++: Growth promotion; +: No effect; −: Growth inhibition; − −: 50% or more growth inhibition. From the text: (§1) FIG. 4 illustrates the results of a comparative analysis of the effects of diol compounds, specifically 1,3-propanediol, 2-methyl-1,3-propanediol, 1,3-butanediol, 2,3-butanediol, 1,2-pentanediol, and 1,2-hexanediol on the growth of harmful bacteria (upper graph) and beneficial bacteria (lower graph). FIG. 4A: 1,3-propanediol, FIG. 4B: 2-methyl-1,3-propanediol; FIG. 4C: 1,3-butanediol; FIG. 4D: 2,3-butanediol; FIG. 4E: 1,2-pentanediol; FIG. 4F: 1,2-Hexanediol.
(§2) • 1) Staphylococcus epidermidis ATCC 12228 and Staphylococcus aureus ATCC 6538 strains were obtained from ThermoFisher Scientific and cultured in tryptic soy broth (culture conditions: 32° C. for 18 hours). After culturing, they were diluted with 0.85% NaCl to adjust the absorbance (600 nm) to 0.5-0.6. • 2) 1,3-propanediol was obtained from Sigma-Aldrich. • 3) 2-methyl-1,3-propanediol, 1,3-butanediol, 2,3-butanediol, 1,2-pentanediol, and 1,2-hexanediol were all obtained from Sigma-Aldrich. • 4) Fructan was obtained from Sigma-Aldrich. • 5) Yeast extract was obtained from Sigma-Aldrich.

For the next test, the system named is S. aureus. Description: Comparison of diol compounds, growth of harmful bacteria. In kind it is cell-based, Staphylococcus aureus.
Description: as §1, §2

The structures appear in SMILES notation.

Turning to `CC(O)CCO` (centres unmarked) [1,3-butanediol], the “Effect on the growth of beneficial bacteria (S. epidermidis)” value (shortened to “Effect on the growth … (S. epidermidis)”) is reported as “++” in the test on S. epidermidis (diol compound 0.1 wt %); “−” with S. epidermidis (diol compound 1 wt %); “−” in the test with S. epidermidis (diol compound 5 wt %); “− − (50% or more growth inhibition)” with S. epidermidis (diol compound 10 wt %); “− − (50% or more growth inhibition)” in the test on S. epidermidis (diol compound 20 wt %). For the same compound, the “Effect on the growth of harmful bacteria (S. aureus)” value (shortened to “Effect on the growth … (S. aureus)”) in the test on S. aureus (diol compound 0.1 wt %) was “+”; in the test with S. aureus (diol compound 1 wt %) it was “+”; in the test with S. aureus (diol compound 5 wt %) it was “++”; with S. aureus (diol compound 10 wt %), “++”; in the test with S. aureus (diol compound 20 wt %), “+++ (50% or more inhibition)”.

As to `CCCC(O)CO` (centres unmarked) [1,2-pentanediol], the “Effect on the growth … (S. epidermidis)” value with S. epidermidis (diol compound 0.1 wt %) was “++”; in the test on S. epidermidis (diol compound 1 wt %), “−”; with S. epidermidis (diol compound 5 wt %) it was “− − (50% or more growth inhibition)”; in the test with S. epidermidis (diol compound 10 wt %) it was “− − (50% or more growth inhibition)”; in the test with S. epidermidis (diol compound 20 wt %), “− − (50% or more growth inhibition)”. The “Effect on the growth … (S. aureus)” value with S. aureus (diol compound 0.1 wt %) is on record as “+”; in the test with S. aureus (diol compound 1 wt %) it was “+”; in the test on S. aureus (diol compound 5 wt %), “+++ (50% or more inhibition)”; in the test with S. aureus (diol compound 10 wt %) it was “+++ (50% or more inhibition)”; in the test with S. aureus (diol compound 20 wt %), “+++ (50% or more inhibition)”.

Consider `CC(CO)CO` [2-methyl-1,3-propanediol], for which the “Effect on the growth … (S. epidermidis)” value is “+” in the test on S. epidermidis (diol compound 0.1 wt %); “+” in the test with S. epidermidis (diol compound 1 wt %); “−” in the test on S. epidermidis (diol compound 5 wt %); “− − (50% or more growth inhibition)” in the test with S. epidermidis (diol compound 10 wt %); “− − (50% or more growth inhibition)” in the test on S. epidermidis (diol compound 20 wt %). In addition, the “Effect on the growth … (S. aureus)” value is “+” with S. aureus (diol compound 0.1 wt %); “+” with S. aureus (diol compound 1 wt %); “++” with S. aureus (diol compound 5 wt %); “+++ (50% or more inhibition)” in the test with S. aureus (diol compound 10 wt %); “+++ (50% or more inhibition)” with S. aureus (diol compound 20 wt %).

Regarding `CC(O)C(C)O` (centres unmarked) [2,3-butanediol], the “Effect on the growth … (S. epidermidis)” value with S. epidermidis (diol compound 0.1 wt %) was “++”; in the test with S. epidermidis (diol compound 1 wt %) it was “−”; in the test with S. epidermidis (diol compound 5 wt %) it was “− − (50% or more growth inhibition)”; in the test on S. epidermidis (diol compound 10 wt %), “− − (50% or more growth inhibition)”; with S. epidermidis (diol compound 20 wt %) it was “− − (50% or more growth inhibition)”. The “Effect on the growth … (S. aureus)” value in the test with S. aureus (diol compound 0.1 wt %) was “+”; in the test on S. aureus (diol compound 1 wt %), “+”; in the test with S. aureus (diol compound 5 wt %), “++”; in the test on S. aureus (diol compound 10 wt %) it was “+++ (50% or more inhibition)”; in the test on S. aureus (diol compound 20 wt %), “+++ (50% or more inhibition)”.

As for `CCCCC(O)CO` (centres unmarked) [1,2-hexanediol], the “Effect on the growth … (S. epidermidis)” value in the test with S. epidermidis (diol compound 0.1 wt %) is “++”; in the test on S. epidermidis (diol compound 1 wt %), “−”; in the test on S. epidermidis (diol compound 5 wt %), “− − (50% or more growth inhibition)”; in the test on S. epidermidis (diol compound 10 wt %), “− − (50% or more growth inhibition)”; in the test with S. epidermidis (diol compound 20 wt %), “− − (50% or more growth inhibition)”. In addition, the “Effect on the growth … (S. aureus)” value in the test with S. aureus (diol compound 0.1 wt %) is given as “+”; in the test with S. aureus (diol compound 1 wt %), “++”; in the test with S. aureus (diol compound 5 wt %), “+++ (50% or more inhibition)”; in the test with S. aureus (diol compound 10 wt %), “+++ (50% or more inhibition)”; in the test with S. aureus (diol compound 20 wt %), “+++ (50% or more inhibition)”.

Values taken from patent US20260325417A1, “TOPICAL SKIN COMPOSITION CONTAINING 1,3-PROPANEDIOL AS ACTIVE INGREDIENT FOR MAINTAINING MICROBIOME BALANCE IN SKIN” (ACTIVON CO.,LTD., priority 2022, published 2026).
